Patent US11819489B2 (priority 2017, dated 2023)
Read-outs that look alike come from different tables or passages of the source.

Legend:
K562 cells [1] = assay: cells; conditions: Homo sapiens, K562, 24 h
HL-60 cells [2] = assay: cells; conditions: Homo sapiens, HL-60, 24 h
KARPAS 45 cells [3] = assay: cells; conditions: Homo sapiens, 24 h
HepG2 cells [4] = assay: cells; conditions: Homo sapiens, HepG2, 24 h
[5] = tested on: Chinese hamster (CH) solid tumour cells; assay: cells; conditions: Cricetulus griseus, 24 h
[6] = tested on: human peripheral blood mononuclear cells (hPBMC); assay: cells; conditions: PBMC, 24 h
in vitro [7] = conditions: human
in vitro [8] = conditions: Chinese hamster
K562 cells [9] = assay: Cellular As uptake, K562 cells; assay type: cell-based, human; conditions: K562, 24-h treatment, 1.5 μM As
Method: (§1) FIG. 24 is a graphical summary of the cellular As concentrations associated with the specified cell lines following 24-h treatment (1.5 μM As). The results are represented as the mean and standard deviation of triplicate samples.
(§2) FIG. 24 summarises the cellular As concentrations associated with the different cell types following 24-h treatment with the various As compounds (1.5 μM As). The leukemia cell lines, K562, HL-60, Kasumi-1 and KARPAS 45, are depicted in red (lighter of the filled in blocks), and the non-leukemia cell types are depicted in black (darkest shading), with the cancerous adherent cells, HepG2, in the diagonal stripes, and the normal cells, hPBMC, in solid black.

HL-60 cells [10] = assay: Cellular As uptake, HL-60 cells; assay type: cell-based, human; conditions: HL-60, 24-h treatment, 1.5 μM As
Method: as §1, §2

Kasumi-1 cells [11] = assay: Cellular As uptake, Kasumi-1 cells; assay type: cell-based, human; conditions: Kasumi-1, 24-h treatment, 1.5 μM As
Method: as §1, §2

KARPAS 45 cells [12] = assay: Cellular As uptake, KARPAS 45 cells; assay type: cell-based, human; conditions: 1.5 μM As
Method: as §1, §2

HepG2 cells [13] = assay type: cell-based, human
hPBMC = assay: Cellular As uptake, hPBMC; assay type: cell-based, human; conditions: 24-h treatment, 1.5 μM As
Method: as §1, §2

K562 cells [14] = tested on: K562 cells
KARPAS 45 cells [15] = tested on: KARPAS 45 cells
[16] = tested on: human peripheral blood mononuclear cells (hPBMC)
Kasumi-1 cells [17] = assay: cells; conditions: Homo sapiens, Kasumi 1, 24 h

## CC(=O)Nc1cc([As](=O)(O)O)ccc1O [Acetarsol]
K562 cells [1]
  IC50: > 1000 µM
K562 cells [1]; read-out: K562 cells still viable
  viability at 1000 µM: 60.5%
HL-60 cells [2]
  IC50: > 1000 µM
KARPAS 45 cells [3]
  IC50: > 1000 µM
HepG2 cells [4]
  IC50: > 1000 µM
[5]
  IC50: > 1000 µM
[6]
  IC50: > 1000 µM
In vitro [7]
  viability: ~100%
In vitro [8]
  viability: ~100%

## O=[As]O [Arsenite, Sodium meta-arsenite]
K562 cells [9]
  cellular As concentration: < 4×10^−14 g/cell
HL-60 cells [10]
  cellular As concentration: < 4×10^−14 g/cell
Kasumi-1 cells [11]
  cellular As concentration: < 4×10^−14 g/cell
KARPAS 45 cells [12]; 24-h treatment
  cellular As concentration in KARPAS 45 cells, times more than in HepG2 cells: 2.2 times
KARPAS 45 cells [12]; KARPAS 45, 24-h treatment
  cellular As concentration: < 4×10^−14 g/cell
HepG2 cells [13]
  cellular As concentration: < 4×10^−14 g/cell
hPBMC
  cellular As concentration: < 4×10^−14 g/cell
K562 cells [14]
  IC50: 18.6 ± 0.5 µM
KARPAS 45 cells [15]
  IC50: 66 ± 3 µM
[16]
  IC50: 40 ± 8 µM
K562 cells [1]
  IC50: 18.6 ± 0.49 µM
HL-60 cells [2]
  IC50: 20 ± 1 µM
Kasumi-1 cells [17]
  IC50: 61.2 ± 0.6 µM
KARPAS 45 cells [3]
  IC50: 66.2 ± 2.6 µM
HepG2 cells [4]
  IC50: 89 ± 1 µM
[5]
  IC50: 26.1 ± 0.8 µM
[6]
  IC50: 40.1 ± 7.7 µM
